Consider three compounds from patent publication US11124554B2, “Modified ligand-gated ion channels and methods of use” (Howard Hughes Medical Institute, priority 2016, dated 2021).

In one test the target is T1, α7^Q79G-5HT3 (Homo sapiens, UniProt P36544, M226I/Q79G/T225I).
T1 construct: expressed in transfected cells; host or cells: HEK cells
Put plainly: Agonist potency (EC50), HEK cells expressing chimeric channel. It is filed as cell-based, human α7 nAChR LBD, murine 5HT3 IPD. The conditions noted are these: read-out: Mean EC50, α7^Q79G-5HT3.

A further test has as its target T2, α7-GlyR (Homo sapiens, UniProt P36544).
T2 construct: expressed in transfected cells; host or cells: HEK cells
Described as above. Type of test: cell-based.

The next test deals with T3, α7-GlyR^A298G (Homo sapiens, UniProt P36544, A298G).
T3 construct: expressed in transfected cells; host or cells: HEK cells
T3 sequence (P36544 with tags, fused parts or gaps, stated change not applied): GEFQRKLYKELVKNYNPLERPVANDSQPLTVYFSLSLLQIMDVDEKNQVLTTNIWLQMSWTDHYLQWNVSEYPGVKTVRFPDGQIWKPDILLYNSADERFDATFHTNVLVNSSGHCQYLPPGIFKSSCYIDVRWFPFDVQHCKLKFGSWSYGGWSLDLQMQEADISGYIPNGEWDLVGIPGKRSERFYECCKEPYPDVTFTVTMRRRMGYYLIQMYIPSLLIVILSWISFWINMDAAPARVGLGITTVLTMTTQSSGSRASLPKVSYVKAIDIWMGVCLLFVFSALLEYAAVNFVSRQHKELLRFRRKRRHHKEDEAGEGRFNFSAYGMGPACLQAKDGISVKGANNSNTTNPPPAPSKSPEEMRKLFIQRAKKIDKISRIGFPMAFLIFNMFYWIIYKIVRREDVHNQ
The description is as above. It is filed as cell-based.

In test [1] the target is T4, α7GlyR W77F Q79G Y115F G175K (Homo sapiens, UniProt P36544, G175K/Q79G/W77F/Y115F).
T4 construct: expressed in transfected cells
T4 sequence (P36544 with tags, fused parts or gaps W77F/Q79G/Y115F/G175K): as the sequence (P36544 with tags, fused parts or gaps, stated change not applied) above, with W55F, Q57G, Y93F, G153K, G276A counted along it
Put plainly: Agonist potency at chimeric channel. Type of test: cell-based.

Test [2] has as its target T5, α7GlyR Q79G Y115F G175K K322L (Homo sapiens, UniProt P36544, G175K/Q79G/Y115F).
T5 construct: expressed in transfected cells
Kind of test: Agonist potency at chimeric channel. It is filed as cell-based.

The target of the next test is T6, α7^Q79S,L131G,Q139L-GlyR (Homo sapiens, UniProt P36544, L131G/Q139L/Q79S).
T6 construct: expressed in transfected cells
T6 sequence (P36544 with tags, fused parts or gaps Q79S/L131G/Q139L): as the sequence (P36544 with tags, fused parts or gaps, stated change not applied) above, with Q57S, L109G, Q117L, G276A counted along it
Kind of test: cell-based. It is filed as cell-based.

The target of the next test is T7, α7^L131G-GABAc (Homo sapiens, UniProt P36544, L131G).
T7 construct: expressed in transfected cells
T7 sequence (P36544 with tags, fused parts or gaps L131G): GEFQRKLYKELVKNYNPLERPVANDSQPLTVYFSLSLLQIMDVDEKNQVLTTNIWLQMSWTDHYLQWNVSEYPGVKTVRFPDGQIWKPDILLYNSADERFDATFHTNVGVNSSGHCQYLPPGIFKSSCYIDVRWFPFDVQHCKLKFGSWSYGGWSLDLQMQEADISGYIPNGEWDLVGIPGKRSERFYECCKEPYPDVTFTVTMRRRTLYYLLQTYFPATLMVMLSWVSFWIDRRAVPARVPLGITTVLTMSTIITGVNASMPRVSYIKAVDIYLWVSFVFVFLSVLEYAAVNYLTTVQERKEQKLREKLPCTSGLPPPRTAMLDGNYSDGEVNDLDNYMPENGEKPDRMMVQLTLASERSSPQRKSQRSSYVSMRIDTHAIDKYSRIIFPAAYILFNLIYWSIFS
Kind of test: Agonist potency at chimeric channel (Table 9). It is filed as cell-based.

In a further test the target is T8, α7GABAc (GABAA-ρ) W298A (Homo sapiens, UniProt P36544, L141F/Q79G).
T8 construct: expressed in transfected cells
T8 sequence (P36544 with tags, fused parts or gaps Q79G/L141F): as the sequence (P36544 with tags, fused parts or gaps L131G) above, with Q57G, G109L, L119F, W276A counted along it
Put plainly: Agonist potency at chimeric channel (Table 7). It is filed as cell-based.

Another test deals with T9, α7GlyR Q79G L131G (Homo sapiens, UniProt P36544, L131G/Q79G).
T9 construct: expressed in transfected cells
T9 sequence (P36544 with tags, fused parts or gaps Q79G/L131G): as the sequence (P36544 with tags, fused parts or gaps, stated change not applied) above, with Q57G, L109G, G276A counted along it
Put plainly: Agonist potency at chimeric channel (Table 9). Type of test: cell-based.

The target of a further test is T10, α7^Q79A-GlyR (Homo sapiens, UniProt P36544, Q79A).
T10 construct: expressed in transfected cells; host or cells: HEK cells
T10 sequence (P36544 with tags, fused parts or gaps Q79A): as the sequence (P36544 with tags, fused parts or gaps, stated change not applied) above, with Q57A, G276A counted along it
Kind of test: Agonist potency (EC50), HEK cells expressing chimeric channel. It is filed as cell-based.

The target of the next test is T11, α7^Q79G-GlyR^A298G (Homo sapiens, UniProt P36544, A298G/Q79G).
T11 construct: expressed in transfected cells; host or cells: HEK cells
T11 sequence (P36544 with tags, fused parts or gaps Q79G): as the sequence (P36544 with tags, fused parts or gaps, stated change not applied) above, with Q57G counted along it
The description is as above. It is filed as cell-based.

A further test deals with T12, α7^P216I-GlyR (Homo sapiens, UniProt P36544, P216I).
T12 construct: expressed in transfected cells
T12 sequence (P36544 with tags, fused parts or gaps P216I): as the sequence (P36544 with tags, fused parts or gaps, stated change not applied) above, with P194I, G276A counted along it
Put plainly: Agonist potency at chimeric channel. It is filed as cell-based.

For test [3], the target named is T13, α7GlyR Q79G G175K Y115F R27D E41R (Homo sapiens, UniProt P36544, E41R/G175K/Q79G/R27D/Y115F).
T13 construct: expressed in transfected cells
T13 sequence (P36544 with tags, fused parts or gaps R27D/E41R/Q79G/Y115F/G175K): as the sequence (P36544 with tags, fused parts or gaps, stated change not applied) above, with R5D, E19R, Q57G, Y93F, G153K, G276A counted along it
Put plainly: Agonist potency at chimeric channel. It is filed as cell-based.

The target in test [4] is T14, α7^L131G,Q139L,Y217F-GlyR (Homo sapiens, UniProt P36544, L131G/Q139L/Y217F).
T14 construct: expressed in transfected cells
T14 sequence (P36544 with tags, fused parts or gaps L131G/Q139L/Y217F): as the sequence (P36544 with tags, fused parts or gaps, stated change not applied) above, with L109G, Q117L, Y195F, G276A counted along it
Kind of test: cell-based. It is filed as cell-based.

Test [5] concerns the target T15, α7GlyR Q79S L131G Q139L Y217F (Homo sapiens, UniProt P36544, L131G/Q139L/Q79S/Y217F).
T15 construct: expressed in transfected cells
Kind of test: cell-based.

Another test concerns the target T16, α7^Q79G,Y115F-5HT3 (Homo sapiens, UniProt P36544, M226I/Q79G/T225I/Y115F).
T16 construct: expressed in transfected cells; host or cells: HEK cells
Kind of test: Agonist potency (EC50), HEK cells expressing chimeric channel. It is filed as cell-based, human α7 nAChR LBD, murine 5HT3 IPD. As to conditions: Table 4.

The next test addresses T17, α7^Q79G,Q139G-5HT3 (Homo sapiens, UniProt P36544, M226I/Q139G/Q79G/T225I).
T17 construct: expressed in transfected cells; host or cells: HEK cells
The description is as above. The conditions noted are these: Table 4. Type of test: cell-based, human α7 nAChR LBD, murine 5HT3 IPD.

Another test has as its target T18, α7^Q79G,Y115F-GlyR^A298G (Homo sapiens, UniProt P36544, A298G/Q79G/Y115F).
T18 construct: expressed in transfected cells; host or cells: HEK cells
The description is as above. It is filed as cell-based. As to conditions: Table 4.

Test [6] deals with T19, α7^R27D,E41R,Q79G,Y115F-GlyR^A298G (Homo sapiens, UniProt P36544, A298G/E41R/Q79G/R27D/Y115F).
T19 construct: expressed in transfected cells; host or cells: HEK cells
T19 sequence (P36544 with tags, fused parts or gaps R27D/E41R/Q79G/Y115F): as the sequence (P36544 with tags, fused parts or gaps, stated change not applied) above, with R5D, E19R, Q57G, Y93F counted along it
The description is as above. It is filed as cell-based. As to conditions: Table 4, read-out: Mean EC50, α7^R27D,E41R,Q79G,115F-GlyR^A298G.

Test [7] deals with T20, α7^L131G,Q139L,Y217F-5HT3 HC (Homo sapiens, UniProt P36544, L131G/M226I/Q139L/T225I/Y217F).
T20 construct: expressed in transfected cells
T20 sequence (P36544 with tags, fused parts or gaps L131G/Q139L/Y217F/T225I/M226I limits assumed): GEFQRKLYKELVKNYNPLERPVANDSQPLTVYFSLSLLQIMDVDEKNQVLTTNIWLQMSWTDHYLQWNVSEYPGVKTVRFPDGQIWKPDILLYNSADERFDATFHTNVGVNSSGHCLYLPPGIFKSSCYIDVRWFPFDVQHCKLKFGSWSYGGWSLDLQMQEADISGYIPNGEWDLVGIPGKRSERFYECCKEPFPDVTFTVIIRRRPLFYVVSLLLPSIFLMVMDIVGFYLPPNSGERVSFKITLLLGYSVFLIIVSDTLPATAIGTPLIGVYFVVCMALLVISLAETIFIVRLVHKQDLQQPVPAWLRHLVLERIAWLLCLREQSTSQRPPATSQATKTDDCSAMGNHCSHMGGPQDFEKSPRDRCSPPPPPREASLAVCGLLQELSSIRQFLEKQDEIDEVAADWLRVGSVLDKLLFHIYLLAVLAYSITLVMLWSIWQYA
Put plainly: Agonist potency at chimeric channel (Table 9). Type of test: cell-based. As to conditions: α75HT3 L131G Q139L Y217F HC.

The target of another test is T21, α7^R27D,E41R-5HT3 (Homo sapiens, UniProt P36544, E41R/M226I/R27D/T225I).
T21 construct: expressed in transfected cells; host or cells: HEK cells
T21 sequence (P36544 with tags, fused parts or gaps R27D/E41R/T225I/M226I limits assumed): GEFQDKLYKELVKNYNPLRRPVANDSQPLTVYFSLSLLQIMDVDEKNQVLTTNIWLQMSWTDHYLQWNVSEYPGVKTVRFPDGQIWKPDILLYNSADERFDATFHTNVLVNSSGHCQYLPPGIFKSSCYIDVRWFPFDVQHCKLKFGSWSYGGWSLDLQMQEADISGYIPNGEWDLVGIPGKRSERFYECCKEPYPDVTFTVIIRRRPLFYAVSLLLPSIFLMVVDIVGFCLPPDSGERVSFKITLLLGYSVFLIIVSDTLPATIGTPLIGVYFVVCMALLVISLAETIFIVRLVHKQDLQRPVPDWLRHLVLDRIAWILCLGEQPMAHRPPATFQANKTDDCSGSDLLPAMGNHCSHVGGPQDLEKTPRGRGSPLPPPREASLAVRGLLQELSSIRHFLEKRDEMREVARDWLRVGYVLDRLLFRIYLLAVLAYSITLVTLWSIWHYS
Kind of test: Whole cell recordings in HEK cells. Type of test: cell-based, human α7 nAChR LBD, murine 5HT3 IPD. As to conditions: V5 epitope tag.

Setting [8] is: read-out: Agonist potency, a7GlyR.

Like-named read-outs stand apart in the source and are kept apart here.

T2 sequence (P36544 with tags, fused parts or gaps): as the sequence (P36544 with tags, fused parts or gaps, stated change not applied) above, with G276A counted along it
T1 sequence (P36544 with tags, fused parts or gaps Q79G/T225I/M226I): as the sequence (P36544 with tags, fused parts or gaps R27D/E41R/T225I/M226I limits assumed) above, with D5R, R19E, Q57G counted along it
T15 sequence (P36544 with tags, fused parts or gaps Q79S/L131G/Q139L/Y217F): as the sequence (P36544 with tags, fused parts or gaps, stated change not applied) above, with Q57S, L109G, Q117L, Y195F, G276A counted along it
T5 sequence (P36544 with tags, fused parts or gaps Q79G/Y115F/G175K): as the sequence (P36544 with tags, fused parts or gaps, stated change not applied) above, with Q57G, Y93F, G153K, G276A, K300L counted along it
T17 sequence (P36544 with tags, fused parts or gaps Q79G/Q139G/T225I/M226I): as the sequence (P36544 with tags, fused parts or gaps R27D/E41R/T225I/M226I limits assumed) above, with D5R, R19E, Q57G, Q117G counted along it
T16 sequence (P36544 with tags, fused parts or gaps Q79G/Y115F/T225I/M226I): as the sequence (P36544 with tags, fused parts or gaps R27D/E41R/T225I/M226I limits assumed) above, with D5R, R19E, Q57G, Y93F counted along it
T18 sequence (P36544 with tags, fused parts or gaps Q79G/Y115F): as the sequence (P36544 with tags, fused parts or gaps, stated change not applied) above, with Q57G, Y93F counted along it

Consider `O=c1cccc2n1C[C@@H]1CNC[C@H]2C1` [Cytisine], for which the EC50 on α7^Q79G-5HT3 is 1700 nM; at α7-GlyR, 6400 nM; at α7-GlyR (read-out: Agonist potency) it was 6400 nM; on α7-GlyR (setting [8]) it was 6400 nM; on α7-GlyR^A298G it was 2100 nM; in test [1], 4.02 µM. The EC50 is above 30000 nM in [2]; 10 µM on α7^Q79S,L131G,Q139L-GlyR; above 500 µM on α7^L131G-GABAc; 13.3 µM on α7GABAc (GABAA-ρ) W298A; above 30000 nM on α7GlyR Q79G L131G.
`Clc1ccc(C2CC3CCC2N3)cn1` (centres unmarked) [Epibatidine]: the EC50 on α7^Q79G-5HT3 (HEK cells, Table 1) turned out to be 50 nM; on α7^Q79A-GlyR it was 38 nM; at α7^Q79G-GlyR^A298G it was 32 nM; at α7^P216I-GlyR, 30 nM; in test [2], 270 nM; in test [3], 59 nM. The EC50 turned out to be 21 nM in test [4], 0.012 µM at α7^Q79S,L131G,Q139L-GlyR, 0.42 µM at α7GABAc (GABAA-ρ) W298A and 22 nM in test [5].
On to `O=C(NC1CN2CCC1CC2)c1ccc(Cl)cc1` (centres unmarked) [PNU-282987], for which the EC50 on α7-GlyR amounted to 130 nM; at α7-GlyR (read-out: Agonist potency), 130 nM; at α7-GlyR (setting [8]), 130 nM; on α7-GlyR (read-out: α7-GlyR EC50), 130 nM; on α7^Q79A-GlyR, 22 nM; at α7-GlyR^A298G, 35 nM. Moreover, the EC50 turned out to be 7 nM at α7^Q79G-GlyR^A298G; 7 nM at α7^Q79G-GlyR^A298G (read-out: α7^Q79G-GlyR^A298G EC50); 350 nM on α7^Q79G,Y115F-5HT3; 160 nM at α7^Q79G,Q139G-5HT3; 220 nM at α7^Q79G,Y115F-GlyR^A298G; 66 nM in [6]. Also, the EC50 at α7^P216I-GlyR was 40 nM; in [1], above 1 µM; in test [3], 50 nM; in test [4], 160 nM; in test [7], 15 nM; at α7GlyR Q79G L131G, 96 nM. Further, in test [5], the EC50 worked out at 50 nM. On α7^R27D,E41R-5HT3, the whole cell response result is listed as “potent responses”.
